This note sets out measurements from patent publication US12187773B2, “Modified GIP peptide analogues” (Antag Therapeutics ApS, priority 2018, dated 2025).

Type in all cases: cell-based
Assay [1] has as its target T1, human GIP receptor (Homo sapiens, UniProt P48546).
T1 sequence (P48546 22-466): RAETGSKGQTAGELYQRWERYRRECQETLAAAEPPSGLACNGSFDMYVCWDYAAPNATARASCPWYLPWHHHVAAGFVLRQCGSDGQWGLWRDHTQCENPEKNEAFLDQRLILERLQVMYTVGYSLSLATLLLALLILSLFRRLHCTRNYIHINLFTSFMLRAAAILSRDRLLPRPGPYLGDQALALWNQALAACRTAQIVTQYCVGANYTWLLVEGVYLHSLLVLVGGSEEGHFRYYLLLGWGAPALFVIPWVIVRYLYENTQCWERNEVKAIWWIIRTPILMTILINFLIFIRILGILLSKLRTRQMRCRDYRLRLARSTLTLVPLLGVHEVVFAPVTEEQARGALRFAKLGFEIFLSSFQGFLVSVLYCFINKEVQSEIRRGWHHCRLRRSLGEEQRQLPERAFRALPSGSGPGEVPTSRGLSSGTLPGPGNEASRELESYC
The assay is described as follows: cAMP antagonism (CisBio cAMP Dynamic 2 HTRF assay). On the set-up: pCMV-Script vector. As to conditions: Table 1C, CisBio, HEK-293 cells; for IC50: cAMP antagonism, nM (IC50), agonist GIP1-42 at EC50. The procedure: The in vitro functional activity of compounds towards human GIP receptor can also be determined in HEK-293 cells transiently expressing the receptor. On the day of the assay, cells were resuspended in HBSS buffer (Gibco, 14025-50) supplemented with 20 mM HEPES (Gibco, 15630-106), 0,1% Pluronic F-68 (Gibco, 24040-032) and 0,1% casein (Sigma, C4765), and plated in 384-well plates at a density of 5000 cells/well. The GIP peptide analogues of the present disclosure were diluted in HBSS buffer supplemented with 20 mM HEPES, 0,1% pluronic, 0,1% casein and 500 uM IBMX. […] The resulting decrease in intracellular cAMP was quantitatively determined using the CisBio cAMP Dynamic 2 HTRF Assay Kit. The assay is based on a competition between native cAMP produced by cells and cAMP labeled with the dye d2 for binding to a cryptate labeled antibody. The specific signal (i.e. energy transfer signal) is inversely proportional to the concentration of cAMP in the sample.
The cAMP-d2 conjugate and the antibody anti-cAMP-Cryptate, both diluted in lysis buffer provided in the kit, were added to the cells according to the manufacturer's protocol. The resulting competitive assay was incubated for 60 minutes at room temperature, and the signal was detected by using a PerkinElmer Envision® instrument with excitation at 320 nm and emission at 665 nm and 620 nm. The HTRF ratio (emission at 665 nm/620 nm*10,000) is inversely proportional to the amount of cAMP present and is converted to nM cAMP per well using a cAMP standard curve. The dose-response curves were fitted using the non-linear regression analysis (four-logistic parameter equation) in GraphPad Prism, whereby pIC50 values were estimated.
(In general: In TR-FRET formats the signal depends on donor and acceptor labels being close together.)

Assay [2] deals with T1, human GIP receptor. Put plainly: cAMP accumulation, antagonism (DiscoveRx HitHunter cAMP XS assay). On the set-up: host or cells: COS-7 (transient, calcium phosphate; pCMV-Script vector). The conditions noted are these: cAMP antagonism, nM (IC50), Table 1B; DiscoveRx; transiently transfected COS-7 cells. The procedure: Transient transfected COS-7 cells expressing the human GIP receptor were seeded in white 96-well plates with a density of 3.5*10^4/well. The day after, the cells were washed twice with Hepes buffered saline (HBS) buffer and incubated with HBS and 1 mM 3-isobutyl-1-methylxanthine (IBMX) for 30 min at 37° C. To test for agonistic properties, ligands were added and incubated for 30 min at 37° C. In order to test for antagonistic properties, the cells were preincubated with the antagonists for 10 min prior to the addition of the agonist and subsequent incubated for 20 additional min. The HitHunter™ cAMP XS assay (DiscoveRx) was carried out according to the manufacturer's instructions.
In order to develop a GIP receptor antagonist with improved antagonistic properties, individual amino acid substitutions were conducted on GIP(3-30)NH2 and in particular at positions: 16, 18, 30 or 3, 16, 18, 30. The obtained peptides were lipidated at position 18 directly or via a linker. Both the agonistic and antagonistic profiles of the compounds were tested in cAMP accumulation experiments done in transiently transfected COS-7 cells expressing the human GIP receptor. To investigate if these mutated analogues still retained their antagonistic properties, their ability to inhibit a GIP-mediated cAMP response corresponding to 50-80% of maximum activation was examined.
(Cyclic AMP is a second messenger, typically raised through Gs and lowered through Gi signalling.)

The target in assay [3] is T1, human GIP receptor. Put plainly: cAMP accumulation, agonism (DiscoveRx HitHunter cAMP XS assay). On the set-up: host or cells: COS-7 (transient, calcium phosphate; pCMV-Script vector). The conditions noted are these: COS-7, read-out: cAMP agonism, Emax. In short, it runs like this: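 cAMP accumulation measured by HitHunter cAMP XS in COS-7 cells transiently expressing human GIP receptor, after 30 min in HBS with 1 mM IBMX at 37 °C. Antagonists preincubated 10 min before GIP giving 50-80% of maximum, then 20 min more; agonist mode used 30 min ligand exposure.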

Assay [4] deals with T1, human GIP receptor. Put plainly: cAMP agonism (CisBio cAMP Dynamic 2 HTRF assay). As to conditions: HEK293, read-out: cAMP agonism, % Efficacy, Table 1C, HEK-293 cells. The procedure:
To test for agonistic properties at the GIP receptor, compounds were diluted and added to cells as described above and incubated for 30 min at 37° C. The resulting increase in intracellular cAMP was determined using the CisBio cAMP Dynamic 2 HTRF Assay Kit as described above.

Broadly, the IC50 is the concentration at which inhibition is half-maximal.

Where a SMILES comes first, the peptide text is derived from it. The star is where a group is joined. C16 diacid = O=C(O)CCCCCCCCCCCCCCC(=O)*

Consider `CC[C@H](C)[C@H](NC(=O)[C@H](CO)NC(=O)[C@H](Cc1ccc(O)cc1)NC(=O)[C@H](CC(=O)O)NC(=O)[C@H](CO)NC(=O)[C@@H](NC(=O)[C@H](Cc1ccccc1)NC(=O)[C@@H](NC(=O)CNC(=O)[C@@H](N)CO)[C@@H](C)O)[C@@H](C)CC)C(=O)N[C@@H](C)C(=O)N[C@@H](CCSC)C(=O)N[C@@H](CC(=O)O)C(=O)N[C@@H](CCCNC(=N)N)C(=O)N[C@H](C(=O)N[C@@H](CCCCNC(=O)CCCCCCCCCCCCCCC(=O)O)C(=O)N[C@@H](CCC(N)=O)C(=O)N[C@@H](CCC(N)=O)C(=O)N[C@@H](CC(=O)O)C(=O)N[C@@H](Cc1ccccc1)C(=O)N[C@H](C(=O)N[C@@H](CC(N)=O)C(=O)N[C@@H](Cc1c[nH]c2ccccc12)C(=O)N[C@@H](CC(C)C)C(=O)N[C@@H](CC(C)C)C(=O)N[C@@H](C)C(=O)N[C@@H](CCC(N)=O)C(=O)N[C@@H](CCCNC(=N)N)C(=O)O)C(C)C)[C@@H](C)CC` [AT259] (H-SGTFISDYSIAMDRIK(C16 diacid)QQDFVNWLLAQR-OH; N-terminus assumed), for which the “cAMP antagonism, % inhib” value at human GIP receptor [1] was found to be 72%. Moreover, the IC50 on human GIP receptor [1] amounted to 58.4 nM; at human GIP receptor [2] it was 19 nM. Further, the Emax is 20% at human GIP receptor [3] and 9% at human GIP receptor [4].

Regarding `CC[C@H](C)[C@H](NC(=O)[C@H](CO)NC(=O)[C@H](Cc1ccc(O)cc1)NC(=O)[C@H](CC(=O)O)NC(=O)[C@H](CO)NC(=O)[C@@H](NC(=O)[C@H](Cc1ccccc1)NC(=O)[C@@H](NC(=O)CNC(=O)[C@@H]1CCCN1)[C@@H](C)O)[C@@H](C)CC)C(=O)N[C@@H](C)C(=O)N[C@@H](CCSC)C(=O)N[C@@H](CC(=O)O)C(=O)N[C@@H](CCCNC(=N)N)C(=O)N[C@H](C(=O)N[C@@H](CCCCNC(=O)CC[C@H](NC(=O)CCCCCCCCCCCCCCC(=O)O)C(=O)O)C(=O)N[C@@H](CCC(N)=O)C(=O)N[C@@H](CCC(N)=O)C(=O)N[C@@H](CC(=O)O)C(=O)N[C@@H](Cc1ccccc1)C(=O)N[C@H](C(=O)N[C@@H](CC(N)=O)C(=O)N[C@@H](Cc1c[nH]c2ccccc12)C(=O)N[C@@H](CC(C)C)C(=O)N[C@@H](CC(C)C)C(=O)N[C@@H](C)C(=O)N[C@@H](CCC(N)=O)C(=O)N[C@@H](CCCNC(=N)N)C(=O)O)C(C)C)[C@@H](C)CC` [AT267] (HELM PEPTIDE1{P.G.T.F.I.S.D.Y.S.I.A.M.D.R.I.K.Q.Q.D.F.V.N.W.L.L.A.Q.R}|PEPTIDE2{[O=C(O)CCCCCCCCCCCCCCC(=O)[*:2]].[gGlu]}$PEPTIDE1,PEPTIDE2,16:R3-2:R2$$$V2.0; N-terminus assumed), the “cAMP antagonism, % inhib” value on human GIP receptor [1] turned out to be 52%. Besides, the Emax came out at 16% on human GIP receptor [3] and 4% at human GIP receptor [4].

Turning to `CC[C@H](C)[C@H](NC(=O)[C@H](CO)NC(=O)[C@H](Cc1ccc(O)cc1)NC(=O)[C@H](CC(=O)O)NC(=O)[C@H](CO)NC(=O)[C@@H](NC(=O)[C@H](Cc1ccccc1)NC(=O)[C@@H](NC(=O)CNC(=O)CN)[C@@H](C)O)[C@@H](C)CC)C(=O)N[C@@H](C)C(=O)N[C@@H](CCSC)C(=O)N[C@@H](CC(=O)O)C(=O)N[C@@H](CCCNC(=N)N)C(=O)N[C@H](C(=O)N[C@@H](CCCCNC(=O)COCCOCCNC(=O)CC[C@H](NC(=O)CCCCCCCCCCCCCCC(=O)O)C(=O)O)C(=O)N[C@@H](CCC(N)=O)C(=O)N[C@@H](CCC(N)=O)C(=O)N[C@@H](CC(=O)O)C(=O)N[C@@H](Cc1ccccc1)C(=O)N[C@H](C(=O)N[C@@H](CC(N)=O)C(=O)N[C@@H](Cc1c[nH]c2ccccc12)C(=O)N[C@@H](CC(C)C)C(=O)N[C@@H](CC(C)C)C(=O)N[C@@H](C)C(=O)N[C@@H](CCC(N)=O)C(=O)N[C@@H](CCCNC(=N)N)C(=O)O)C(C)C)[C@@H](C)CC` [AT269] (HELM PEPTIDE1{G.G.T.F.I.S.D.Y.S.I.A.M.D.R.I.K.Q.Q.D.F.V.N.W.L.L.A.Q.R}|PEPTIDE2{[O=C(O)CCCCCCCCCCCCCCC(=O)[*:2]].[gGlu].[O=C(COCCOCCN[*:1])[*:2]]}$PEPTIDE1,PEPTIDE2,16:R3-3:R2$$$V2.0; N-terminus assumed), the IC50 on human GIP receptor [2] was 91 nM. The Emax amounted to 12% on human GIP receptor [3] and 0% on human GIP receptor [4].

On to `CC[C@H](C)[C@H](NC(=O)[C@H](CO)NC(=O)[C@H](Cc1ccc(O)cc1)NC(=O)[C@H](CC(=O)O)NC(=O)[C@H](CO)NC(=O)[C@@H](NC(=O)[C@H](Cc1ccccc1)NC(=O)[C@@H](NC(=O)CNC(=O)[C@@H](N)CO)[C@@H](C)O)[C@@H](C)CC)C(=O)N[C@@H](C)C(=O)N[C@@H](CCSC)C(=O)N[C@@H](CC(=O)O)C(=O)N[C@@H](CCCNC(=N)N)C(=O)N[C@H](C(=O)N[C@@H](CCCCNC(=O)COCCOCCNC(=O)CC[C@H](NC(=O)CCCCCCCCCCCCCCC(=O)O)C(=O)O)C(=O)N[C@@H](CCC(N)=O)C(=O)N[C@@H](CCC(N)=O)C(=O)N[C@@H](CC(=O)O)C(=O)N[C@@H](Cc1ccccc1)C(=O)N[C@H](C(=O)N[C@@H](CC(N)=O)C(=O)N[C@@H](Cc1c[nH]c2ccccc12)C(=O)N[C@@H](CC(C)C)C(=O)N[C@@H](CC(C)C)C(=O)N[C@@H](C)C(=O)N[C@@H](CCC(N)=O)C(=O)N[C@@H](CCCNC(=N)N)C(=O)O)C(C)C)[C@@H](C)CC` [AT271] (HELM PEPTIDE1{S.G.T.F.I.S.D.Y.S.I.A.M.D.R.I.K.Q.Q.D.F.V.N.W.L.L.A.Q.R}|PEPTIDE2{[O=C(O)CCCCCCCCCCCCCCC(=O)[*:2]].[gGlu].[O=C(COCCOCCN[*:1])[*:2]]}$PEPTIDE1,PEPTIDE2,16:R3-3:R2$$$V2.0; N-terminus assumed), for which, on human GIP receptor [1], the “cAMP antagonism, % inhib” value worked out at 73% and the IC50 came to 85.8 nM. For the same compound, the Emax at human GIP receptor [3] was determined as 9%. Further, the Emax at human GIP receptor [4] was 2%.
